Source: US20240336588A1, “COMPOSITIONS AND METHODS FOR ANTIOXIDANT AND ANTI-INFLAMMATORY THERAPEUTICS” (AVANTI BIOSCIENCES INC., priority 2021, published 2024)

Columns and labels:
[1] = tested on: MOG35-55-induced chronic progressive Experimental Autoimmune Encephalomyelitis (EAE); assay: MOG35-55-induced murine model of chronic progressive EAE; format: in vivo, mice; conditions: reference compound; FIG. 1
Text: Compound 40 of Table 1 was examined for application in neurodegenerative disorders using a MOG35-55-induced murine model of chronic progressive Experimental Autoimmune Encephalomyelitis (EAE), an inflammation model predictive for multiple sclerosis (MS).
Without being bound by theory, the present inventors note that compound 40 could have a peripheral immunomodulation effect and an overall neuroprotective effect, which could have advantageous implications for the treatment of neurodegenerative disorders like Alzheimer's disease and Multiple Sclerosis.

[2] = target: DYRK1A (HT-497, 6×His tagged rat truncated DYRK1A isoform X1 residues 1-497) (Rattus norvegicus (Rat), UniProt Q63470); assay: DYRK1A ELISA assay (HT-PRD phosphorylation); format: biochemical; conditions: 100 µM ATP, 5 ng HT-497, 30 min at 30° C.
Experimental: Compounds of Table 1, above, were examined in vitro for activity against DYRK1A, DYRK1B, DYRK2 via an ELISA assay.
DYRK1A assay. […] After blocking, wells were washed extensively with dilution buffer before subjecting to phosphorylation. […] At the end point, wells were washed with ˜350 μl dilution buffer three times to terminate the reaction. […] Each point was run in quadruplicate with DMSO present in all assays at 0.2% final concentration. […] HT-PRD phosphorylation was subsequently determined by the sandwich antibody staining protocol, first with 100 μl mouse mAb 3D3 specific for detecting DYRK1A-phosphorylated PRD (60 min at room temperature) then with 100 μl alkaline phosphatase (AP)-linked anti-mouse secondary antibody (60 min at room temperature), followed by colorimetric reaction with 100 μl PNPP solution (PNPP substrate tablet, Thermo Fisher). […] The readings were then recorded for subsequent IC50 calculation. The DYRK1A assay protocol can also support DYRK1B and DYRK2 phosphorylation reactions in the enzyme concentration-dependent manner; therefore, the method was adapted for measuring the activity of candidate compounds against DYRK1B and DYRK2. For DYRK2, the reactions were performed as described above with 6 ng HT-DYRK2 (6×His tagged full-length human DYRK2 isoform 1). For DYRK1B, the assays were also similarly conducted but with 70 ng GST-DYRK1B (glutathione S-transferase tagged full length human DYRK1B isoform p65) and an extended kinase reaction time of 60 min.
Dilution factors for both mAb 3D3 and secondary antibody were pre-determined for each batch of antibody to ensure that neither antibody was limiting in the assay.
Data transformation, calculation, plotting, curve fitting, and IC 50 calculation were performed in KaleidaGraph (http://www.synergy.com/wordpress_650164087; Mac version 4.1). Data was corrected for background (readings from wells with only PNPP) before subsequent manipulations. […] The resulting residual activity was then plotted against its corresponding inhibitor concentrations in semi-log graph and the plot was fit to the sigmoidal equation, y=a+(b−a)/(1+(x/c)^d), for IC50 calculation.

SMILES | IC50 [2] | activity in the EAE model (reference compounds) [1]
O=C(O[C@@H]1Cc2c(O)cc(O)cc2O[C@@H]1c1cc(O)c(O)c(O)c1)c1cc(O)c(O)c(O)c1 [Compound 3, (2R,3R)-5,7-dihydroxy-2-(3,4,5-trihydroxyphenyl)chroman-3-yl 3,4,5-trihydroxybenzoate, reference compound] | – | no significant activity
O=C(O[C@@H]1Cc2c(O)cc(O)cc2O[C@H]1c1cc(O)c(O)c(O)c1)c1ccc(O)c(O)c1O [Compound 38, (2S,3R)-5,7-dihydroxy-2-(3,4,5-trihydroxyphenyl)chroman-3-yl 2,3,4-trihydroxybenzoate] | > 100 nM | –
O=C(O[C@@H]1Cc2ccccc2O[C@H]1c1cc(O)c(O)c(O)c1)c1cc(O)c(O)c(O)c1 [Compound 39, (2S,3R)-2-(3,4,5-trihydroxyphenyl)chroman-3-yl 3,4,5-trihydroxybenzoate] | > 100 nM | –
O=C(O[C@@H]1Cc2c(O)cc(O)cc2O[C@H]1c1cc(O)c(O)c(O)c1)c1cc(O)c(O)cc1F [Compound 41, (2S,3R)-5,7-dihydroxy-2-(3,4,5-trihydroxyphenyl)chroman-3-yl 2-fluoro-4,5-dihydroxybenzoate] | > 100 nM | –
O=C(O[C@@H]1Cc2c(O)cc(O)cc2O[C@H]1c1cc(O)c(O)c(O)c1)c1cc(O)c(O)cc1O [Compound 42, (2S,3R)-5,7-dihydroxy-2-(3,4,5-trihydroxyphenyl)chroman-3-yl 2,4,5-trihydroxybenzoate] | > 100 nM | –
O=C(O[C@@H]1Cc2c(O)cc(O)cc2O[C@H]1c1cc(O)c(O)c(O)c1)[C@H]1CC[C@@H](O)CC1 [Compound 43, (2S,3R)-5,7-dihydroxy-2-(3,4,5-trihydroxyphenyl)chroman-3-yl (1s,4S)-4-hydroxycyclohexane-1-carboxylate] | > 1000 nM | –
O=C(O[C@@H]1Cc2c(O)cc(O)cc2O[C@H]1c1cc(O)c(O)c(O)c1)[C@H]1CC[C@H](O)CC1 [Compound 44, (2S,3R)-5,7-dihydroxy-2-(3,4,5-trihydroxyphenyl)chroman-3-yl (1r,4R)-4-hydroxycyclohexane-1-carboxylate] | > 1000 nM | –
O=C(O[C@@H]1Cc2c(O)cc(O)cc2O[C@H]1c1cc(O)c(O)cc1F)c1cc(O)c(O)c(O)c1 [Compound 45, (2S,3R)-2-(2-fluoro-4,5-dihydroxyphenyl)-5,7-dihydroxychroman-3-yl 3,4,5-trihydroxybenzoate] | > 100 nM | –
O=C(O[C@@H]1Cc2c(O)cc(O)cc2O[C@H]1c1cc(O)c(O)c(O)c1F)c1cc(O)c(O)c(O)c1 [Compound 46, (2S,3R)-2-(2-fluoro-3,4,5-trihydroxyphenyl)-5,7-dihydroxychroman-3-yl 3,4,5-trihydroxybenzoate] | < 100 nM | –
O=C(O[C@@H]1Cc2c(O)cc(O)cc2O[C@H]1c1cc(O)c(O)c(O)c1F)c1cc(O)c(O)c(O)c1F [Compound 47, (2S,3R)-2-(2-fluoro-3,4,5-trihydroxyphenyl)-5,7-dihydroxychroman-3-yl 2-fluoro-3,4,5-trihydroxybenzoate] | < 100 nM | –
COc1c(O)c(O)c(F)c(C(=O)O[C@@H]2Cc3c(O)cc(O)cc3O[C@H]2c2ccc(O)c(O)c2)c1F [Compound 64, (2S,3R)-2-(3,4-dihydroxyphenyl)-5,7-dihydroxychroman-3-yl 2,6-difluoro-3,4-dihydroxy-5-methoxybenzoate] | > 100 nM | –
CCNC(=O)Oc1cc(O)c2c(c1)O[C@H](c1cc(O)c(O)c(O)c1)[C@H](OC(=O)c1cc(O)c(O)c(O)c1)C2 [Compound 70, (2R,3R)-7-((ethylcarbamoyl)oxy)-5-hydroxy-2-(3,4,5-trihydroxyphenyl)chroman-3-yl 3,4,5-trihydroxybenzoate] | > 100 nM | –
CCNC(=O)Oc1c(O)cc([C@H]2Oc3cc(O)cc(O)c3C[C@H]2OC(=O)c2cc(O)c(O)c(O)c2)cc1O [Compound 72, (2R,3R)-2-(4-((ethylcarbamoyl)oxy)-3,5-dihydroxyphenyl)-5,7-dihydroxychroman-3-yl 3,4,5-trihydroxybenzoate] | > 100 nM | –
CCCCCCCCc1ccc(CCC(N)(CO)CO)cc1 [FTY720, Fingolimod, reference compound] | – | reversal of the disease

Now from value to compound, other results behind:

IC50 [2] | SMILES | activity in the EAE model (reference compounds) [1]
> 100 nM | O=C(O[C@@H]1Cc2c(O)cc(O)cc2O[C@H]1c1cc(O)c(O)cc1F)c1cc(O)c(O)c(O)c1F [Compound 48, (2S,3R)-2-(2-fluoro-4,5-dihydroxyphenyl)-5,7-dihydroxychroman-3-yl 2-fluoro-3,4,5-trihydroxybenzoate] | –
> 100 nM | COc1cc([C@@H]2Oc3cc(O)cc(O)c3C[C@H]2OC(=O)c2cc(O)c(O)c(O)c2F)cc(O)c1O [Compound 49, (2S,3R)-2-(3,4-dihydroxy-5-methoxyphenyl)-5,7-dihydroxychroman-3-yl 2-fluoro-3,4,5-trihydroxybenzoate] | –
> 100 nM | COc1c(O)c(O)cc(C(=O)O[C@@H]2Cc3c(O)cc(O)cc3O[C@H]2c2cc(O)c(O)c(O)c2)c1F [Compound 50, (2S,3R)-5,7-dihydroxy-2-(3,4,5-trihydroxyphenyl)chroman-3-yl 2-fluoro-4,5-dihydroxy-3-methoxybenzoate] | –
> 100 nM | Cc1cc(O)c(O)cc1[C@@H]1Oc2cc(O)cc(O)c2C[C@H]1OC(=O)c1cc(O)c(O)c(O)c1F [Compound 52, (2S,3R)-2-(4,5-dihydroxy-2-methylphenyl)-5,7-dihydroxychroman-3-yl 2-fluoro-3,4,5-trihydroxybenzoate] | –
> 1000 nM | O=C(O[C@@H]1Cc2ccccc2C[C@H]1c1cc(O)c(O)c(O)c1)c1cc(O)c(O)c(O)c1 [Compound 53, (2R,3S)-3-(3,4,5-trihydroxyphenyl)-1,2,3,4-tetrahydronaphthalen-2-yl 3,4,5-trihydroxybenzoate] | –
> 100 nM | COc1c(O)c(O)c(F)c(C(=O)O[C@@H]2Cc3c(O)cc(O)cc3O[C@H]2c2cc(O)c(O)c(O)c2)c1F [Compound 59, (2S,3R)-5,7-dihydroxy-2-(3,4,5-trihydroxyphenyl)chroman-3-yl 2,6-difluoro-3,4-dihydroxy-5-methoxybenzoate] | –
> 100 nM | O=C(O[C@@H]1Cc2c(O)cc(O)cc2O[C@H]1c1cc(O)c(O)c(O)c1)c1cc(O)c(O)c(OC(F)F)c1 [Compound 60, (2S,3R)-5,7-dihydroxy-2-(3,4,5-trihydroxyphenyl)chroman-3-yl 3-(difluoromethoxy)-4,5-dihydroxybenzoate] | –
> 100 nM | CC(C)Oc1c(O)c(O)c(F)c(C(=O)O[C@@H]2Cc3c(O)cc(O)cc3O[C@H]2c2cc(O)c(O)c(O)c2)c1F [Compound 61, (2S,3R)-5,7-dihydroxy-2-(3,4,5-trihydroxyphenyl)chroman-3-yl 2,6-difluoro-3,4-dihydroxy-5-isopropoxybenzoate] | –
> 100 nM | O=C(O[C@@H]1Cc2c(O)cc(O)cc2O[C@H]1c1cc(O)c(O)c(O)c1)c1cc(O)c(O)cc1C(F)(F)F [Compound 62, (2S,3R)-5,7-dihydroxy-2-(3,4,5-trihydroxyphenyl)chroman-3-yl 4,5-dihydroxy-2-(trifluoromethyl)benzoate] | –
> 100 nM | Cc1c(C(=O)O[C@@H]2Cc3c(O)cc(O)cc3O[C@H]2c2cc(O)c(O)c(O)c2)ccc(O)c1O [Compound 63, (2S,3R)-5,7-dihydroxy-2-(3,4,5-trihydroxyphenyl)chroman-3-yl 3,4-dihydroxy-2-methylbenzoate] | –
> 100 nM | O=C(O[C@@H]1Cc2c(O)cc(O)cc2O[C@H]1c1cc(O)c(O)c(O)c1)c1cc(OC(F)F)c(O)c(O)c1F [Compound 65, (2S,3R)-5,7-dihydroxy-2-(3,4,5-trihydroxyphenyl)chroman-3-yl 5-(difluoromethoxy)-2-fluoro-3,4-dihydroxybenzoate] | –
> 100 nM | O=C(O[C@@H]1Cc2c(O)cc(O)cc2O[C@H]1c1cc(O)c(O)c(O)c1)c1cc(O)c(O)c(F)c1 [Compound 66, (2S,3R)-5,7-dihydroxy-2-(3,4,5-trihydroxyphenyl)chroman-3-yl 3-fluoro-4,5-dihydroxybenzoate] | –
> 100 nM | CCC(=O)Oc1cc(O)c2c(c1)O[C@H](c1cc(O)c(O)c(O)c1)[C@H](OC(=O)c1cc(O)c(O)c(O)c1)C2 [Compound 69, (2R,3R)-5-hydroxy-7-(propionyloxy)-2-(3,4,5-trihydroxyphenyl)chroman-3-yl 3,4,5-trihydroxybenzoate] | –
> 100 nM | CCCCCC(=O)Oc1cc(O)c2c(c1)O[C@H](c1cc(O)c(O)c(O)c1)[C@H](OC(=O)c1cc(O)c(O)c(O)c1)C2 [Compound 71, (2R,3R)-7-(hexanoyloxy)-5-hydroxy-2-(3,4,5-trihydroxyphenyl)chroman-3-yl 3,4,5-trihydroxybenzoate] | –
